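How tested: cells in 96-well plates exposed to compound for 48 hours at five concentrations. TGI marks complete inhibition of growth.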
How the values were obtained:
Assay in all cases: NCI-60 cell line screen, 48 h
SNB-19 CNS = tested on: SNB-19 CNS
SR leukemia = tested on: SR leukemia
SK-MEL-28 melanoma = tested on: SK-MEL-28 melanoma
SW-620 colon = tested on: SW-620 colon
KM20L2 colon = tested on: KM20L2 colon
OVCAR-4 ovarian = tested on: OVCAR-4 ovarian
M14 melanoma = tested on: M14 melanoma
RXF 393 renal = tested on: RXF 393 renal
IGROV1 ovarian = tested on: IGROV1 ovarian
TK-10 renal = tested on: TK-10 renal
HT29 colon = tested on: HT29 colon
OVCAR-3 ovarian = tested on: OVCAR-3 ovarian
KM12 colon = tested on: KM12 colon
CAKI-1 renal = tested on: CAKI-1 renal
U251 CNS = tested on: U251 CNS
EKVX NSCLC = tested on: EKVX NSCLC
HOP-92 NSCLC = tested on: HOP-92 NSCLC
LXFL 529 NSCLC = tested on: LXFL 529 NSCLC
K-562 leukemia = tested on: K-562 leukemia
CCRF-CEM leukemia = tested on: CCRF-CEM leukemia
SN12C renal = tested on: SN12C renal
SF-295 CNS = tested on: SF-295 CNS
RXF-631 renal = tested on: RXF-631 renal
HCT-15 colon = tested on: HCT-15 colon
XF 498 CNS = tested on: XF 498 CNS
MALME-3M melanoma = tested on: MALME-3M melanoma
A549 NSCLC = tested on: A549 NSCLC
ACHN renal = tested on: ACHN renal
OVCAR-5 ovarian = tested on: OVCAR-5 ovarian
SK-OV-3 ovarian = tested on: SK-OV-3 ovarian
786-0 renal = tested on: 786-0 renal
M19-MEL melanoma = tested on: M19-MEL melanoma
MOLT-4 leukemia = tested on: MOLT-4 leukemia
SK-MEL-2 melanoma = tested on: SK-MEL-2 melanoma
SNB-78 CNS = tested on: SNB-78 CNS
HCC-2998 colon = tested on: HCC-2998 colon
OVCAR-8 ovarian = tested on: OVCAR-8 ovarian
NCI-H23 lung = tested on: NCI-H23 lung
COLO 205 colon = tested on: COLO 205 colon
UO-31 renal = tested on: UO-31 renal
SF-268 CNS = tested on: SF-268 CNS
DLD-1 colon = tested on: DLD-1 colon
SF-539 CNS = tested on: SF-539 CNS
SK-MEL-5 melanoma = tested on: SK-MEL-5 melanoma
NCI-H522 lung = tested on: NCI-H522 lung
UACC-62 melanoma = tested on: UACC-62 melanoma
HCT-116 colon = tested on: HCT-116 colon
DMS 114 small cell lung = tested on: DMS 114 small cell lung
LOX IMVI melanoma = tested on: LOX IMVI melanoma
HL-60(TB) leukemia = tested on: HL-60(TB) leukemia
RPMI-8226 leukemia = tested on: RPMI-8226 leukemia
NCI-H460 lung = tested on: NCI-H460 lung
NCI-H226 lung = tested on: NCI-H226 lung
HOP-62 NSCLC = tested on: HOP-62 NSCLC
UACC-257 melanoma = tested on: UACC-257 melanoma
HOP-18 NSCLC = tested on: HOP-18 NSCLC

Measured: TGI

Nc1ccc(C(=O)N/C(=C\c2ccc3c(c2)OCO3)c2nc3[nH]c(=S)[nH]c(=O)c3[nH]2)cc1
not listed: HCT-116 colon | DMS 114 small cell lung | LOX IMVI melanoma | HL-60(TB) leukemia | RPMI-8226 leukemia | NCI-H460 lung | NCI-H226 lung | HOP-62 NSCLC | UACC-257 melanoma | HOP-18 NSCLC
> 100 µM: all other assays above

CC1=C(C(=O)Nc2ccccc2C)C(c2ccco2)C(C(=O)Nc2ccccc2C)=C(C)N1C
not listed: KM20L2 colon | HCT-15 colon | COLO 205 colon
> 100 µM: all other assays above
